The target of test [1] is T1, Serine protease 1 (Homo sapiens, UniProt P07477). Put plainly: Ratio of inhibitory constant evaluated against trypsin to that of thrombin (Factor IIa).
In test [2] the target is Prothrombin (Homo sapiens, UniProt P00734). Nature of the test: Inhibitory constant evaluated against thrombin (Factor IIa).
For test [3], the target named is T1, Serine protease 1. Nature of the test: Inhibitory constant evaluated against trypsin.
The species named for test [4] is Homo sapiens. Put plainly: Concentration needed to double the activated partial thromboplastin time in human plasma. Format: functional.

T1 sequence (P07477 whole entry): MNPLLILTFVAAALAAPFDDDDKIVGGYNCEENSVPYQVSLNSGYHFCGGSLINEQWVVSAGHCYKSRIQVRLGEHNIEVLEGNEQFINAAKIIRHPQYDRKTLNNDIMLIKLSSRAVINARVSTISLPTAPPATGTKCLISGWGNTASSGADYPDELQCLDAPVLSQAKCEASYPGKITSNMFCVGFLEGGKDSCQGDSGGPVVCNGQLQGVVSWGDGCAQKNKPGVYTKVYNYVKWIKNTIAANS

By Ki is commonly meant a measure of affinity in units of concentration, obtained from inhibition or displacement. Low readings indicate higher affinity, high ones lower affinity. Regarding `NCc1ccc(Cl)cc1CNC(=O)[C@@H]1CCCN1C(=O)[C@H](N)Cc1ccccc1`, the Selectivity ratio in test [1] was 1910. In addition, the inhibitory constant (Ki) is 3.3 nM in test [2] and 6.2 µM in test [3]. Moreover, in test [4], the “2x APTT” value came to 0.34 µM.

`Cc1ccc(NS(=O)(=O)Cc2ccccc2)c(=O)n1CC(=O)NCc1cc(Cl)ccc1CN`: the Selectivity ratio in test [1] is 40200. Moreover, the results for the Ki in test [2] and in test [3] were 0.046 nM and 1.85 µM, respectively. Moreover, the “2x APTT” value in test [4] was 0.16 µM.

Take `Cc1ccc(NS(=O)(=O)Cc2ccccc2)c(=O)n1CC(=O)NCc1ccc(CN)cc1`: the Selectivity ratio in test [1] is 26.5. Besides, the Ki in test [2] amounted to 49 nM; in test [3] it was 1.3 µM.

Consider `NCc1ccc(Cl)cc1CNC(=O)Cn1c(Cl)cnc(NCC(F)(F)c2cccc[n+]2[O-])c1=O`, for which the Ki was determined as 0.0034 nM in test [2] and 0.415 µM in test [3]. In addition, the “2x APTT” value in test [4] stood at 0.13 µM.

For the compound `Cc1ccc(NS(=O)(=O)Cc2ccccc2)c(=O)n1CC(=O)NCc1cccc(Cl)c1`, the Selectivity ratio in test [1] was determined as 2790. Further, the inhibition constant Ki amounted to 7.1 nM in test [2] and 20 µM in test [3]. Besides, the “2x APTT” value in test [4] came out at 2.8 µM.

Take `COc1ccc2cc(S(=O)(=O)NC(Cc3ccc(CN)cc3)C(=O)N(C)C3CCCC3)ccc2c1` (configuration not stated): the Ki in test [2] came out at 6.6 nM; in test [3], 14.2 µM.

Turning to `Cc1nc(N)ccc1CNC(=O)Cn1c(C)ccc(NS(=O)(=O)Cc2ccccc2)c1=O` [L-374087], the Selectivity ratio in test [1] is 6400. The “2x APTT” value in test [4] came to 0.22 µM.

Consider `Cc1cc(CNC(=O)[C@@H]2CCCN2C(=O)[C@H](N)C(c2ccccc2)c2ccccc2)c(C)cc1CN`, for which, in test [2], the Ki is 39 nM.

Take `N[C@H](Cc1ccccc1)C(=O)N1CCC[C@H]1C(=O)NCc1cccc(Cl)c1`: the Selectivity ratio in test [1] is 356. For the same compound, the figures for the Ki in test [2] and in test [3] were 250 nM and 89 µM, respectively.

Turning to `Cc1ccc(NS(=O)(=O)Cc2ccccc2)c(=O)n1CC(=O)NCc1ccccc1N`, the Selectivity ratio in test [1] was over 2130. The Ki was 470 nM in test [2] and over 1000 µM in test [3].

On to `Cc1ccc(NS(=O)(=O)Cc2ccccc2)c(=O)n1CC(=O)NCc1ccccc1CCN`, for which the Selectivity ratio in test [1] turned out to be 107000. Besides, the results for the Ki in test [2] and in test [3] were 4.1 nM and 437 µM, respectively. For the same compound, the “2x APTT” value in test [4] was found to be 0.53 µM.

For the compound `NCc1ccccc1CNC(=O)[C@@H]1CCCN1C(=O)[C@H](N)Cc1ccccc1`, the Selectivity ratio in test [1] amounted to 339. The Ki in test [2] worked out at 313 nM; in test [3], 106 µM.

As to `Cc1ccc(NS(=O)(=O)Cc2ccccc2)c(=O)n1CC(=O)NCc1ccccc1`, in test [1], the Selectivity ratio was 3580. The compound also returned a Ki in test [3] of 466 µM.

As to `Cc1nc(N)ccc1CNC(=O)Cn1c(C)cnc(NCCc2ccccc2)c1=O` [L-375378], the Selectivity ratio in test [1] is 1910. In addition, in test [4], the “2x APTT” value came out at 0.41 µM.

Regarding `N[C@H](Cc1ccccc1)C(=O)N1CCC[C@H]1C(=O)NCc1ccccc1`, in test [1], the Selectivity ratio is over 217. In test [3], this compound displayed a Ki of over 1000 µM.

As to `NCCc1ccc(Cl)cc1CNC(=O)[C@@H]1CCCN1C(=O)[C@H](N)Cc1ccccc1`, the Selectivity ratio in test [1] is 4060. For the same compound, the figures for the Ki in test [2] and in test [3] were 62 nM and 252 µM, respectively.

As to `Cc1cnc(NCCc2ccccc2)c(=O)n1CC(=O)NCc1cc(Cl)ccc1CN`, in test [1], the Selectivity ratio was 12300. The Ki in test [2] is 0.13 nM; in test [3] it was 1.6 µM. In addition, in test [4], the “2x APTT” value stood at 0.41 µM.

In the case of `CN(C(=O)C(Cc1ccc(CN)cc1)NS(=O)(=O)c1ccc2c(c1)CCCCC2)C1CCCC1` (configuration not stated), the values for the Ki in test [2] and in test [3] were 3.3 nM and 6.3 µM, respectively.

In the case of `Cc1ccc(NS(=O)(=O)Cc2ccccc2)c(=O)n1CC(=O)NCc1ccccc1CN`, in test [1], the Selectivity ratio was 12900. Besides, the Ki came out at 5.2 nM in test [2] and 67 µM in test [3]. Moreover, in test [4], the “2x APTT” value came to 0.44 µM.

As to `Cc1ccc(NS(=O)(=O)Cc2ccccc2)c(=O)n1CC(=O)NCc1cccc(CN)c1`, in test [1], the Selectivity ratio stood at 46.9. Also, the Ki in test [2] worked out at 490 nM; in test [3] it was 23 µM.

Consider `Cc1ccc(NS(=O)(=O)Cc2ccccc2)c(=O)n1CC(=O)NCc1cc(Cl)ccc1CCN`, for which the Selectivity ratio in test [1] worked out at 740000. For the same compound, the values for the Ki in test [2] and in test [3] were 0.05 nM and 37 µM, respectively. Besides, the “2x APTT” value in test [4] is 0.18 µM.

Values taken from ChEMBL document CHEMBL1136286, “Unexpected enhancement of thrombin inhibitor potency with o-aminoalkylbenzylamides in the P1 position” (Bioorg Med Chem Lett, 2003).
